The record followed here is patent US20240343704A1, “HALO-SUBSTITUTED AMINO PYRIDINE COMPOUNDS AS INHIBITORS OF THE HAEMATOPOIETIC PROGENITOR KINASE 1 (HPK1)” (priority 2021, published 2024).

One experiment concerns the target Lck (h) (Homo sapiens, UniProt P06239). The experiment is described as follows: Lck Human  Kinase Enzymatic Radiometric Assay. Type of experiment: biochemical. The settings on record: read-out: Lck IC50 nM Range*. In short, it runs like this:
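Substrate 33P-incorporation measured by scintillation counting after spotting on P30 filtermat and phosphoric acid washes. Human Lck reacted 40 min at RT in 50 mM Tris pH 7.5 with 10 mM MgAcetate, [gamma-33P]-ATP, 250 uM Cdc2 peptide, 0.1 mM EGTA and 0.1 mM Na3VO4.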

The target of experiment [1] is T1, Recombinant (1-346) HPK1 (h) (Homo sapiens, UniProt Q92918).
T1 construct: Recombinant (1-346) HPK1 (h) is incubated with 8 mM MOPS pH 7.0
T1 sequence (Q92918 1-346): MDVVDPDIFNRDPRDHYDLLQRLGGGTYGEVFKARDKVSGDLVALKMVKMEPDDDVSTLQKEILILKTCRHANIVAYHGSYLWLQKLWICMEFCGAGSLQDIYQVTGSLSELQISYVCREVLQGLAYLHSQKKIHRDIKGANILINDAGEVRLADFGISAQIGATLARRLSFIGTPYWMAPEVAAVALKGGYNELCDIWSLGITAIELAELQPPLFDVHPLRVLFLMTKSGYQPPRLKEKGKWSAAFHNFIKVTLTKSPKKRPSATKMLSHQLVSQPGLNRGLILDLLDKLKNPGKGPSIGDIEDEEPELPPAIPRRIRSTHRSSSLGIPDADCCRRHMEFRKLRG
Briefly: HPK1 Human STE Kinase Enzymatic Radiometric Assay. In kind it is biochemical. The settings on record: read-out: HPK1 IC50 nM Range*. Here is the method: A stock solution of 10 mM of test compound is prepared in DMSO. The compound plate was prepared by 3-fold and 9-point serial dilutions. […] The reaction is initiated by The addition of the Mg/ATP mix. After incubation for 40 minutes at RT, the reaction is stopped by the addition of phosphoric acid to a concentration of 0.5%.

Sequence of Lck (h) (P06239 whole entry): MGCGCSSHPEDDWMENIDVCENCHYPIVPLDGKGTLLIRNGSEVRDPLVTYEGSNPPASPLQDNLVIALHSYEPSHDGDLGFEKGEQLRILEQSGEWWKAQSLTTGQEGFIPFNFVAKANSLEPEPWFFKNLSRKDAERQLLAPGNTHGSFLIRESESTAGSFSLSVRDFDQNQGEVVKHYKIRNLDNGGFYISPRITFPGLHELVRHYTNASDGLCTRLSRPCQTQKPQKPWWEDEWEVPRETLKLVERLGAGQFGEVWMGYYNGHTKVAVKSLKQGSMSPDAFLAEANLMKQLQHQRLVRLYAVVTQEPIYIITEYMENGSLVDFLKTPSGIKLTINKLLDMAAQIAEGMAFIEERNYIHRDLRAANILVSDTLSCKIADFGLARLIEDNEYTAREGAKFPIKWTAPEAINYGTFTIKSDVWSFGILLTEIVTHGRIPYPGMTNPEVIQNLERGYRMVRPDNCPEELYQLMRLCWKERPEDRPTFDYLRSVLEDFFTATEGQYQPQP

`Nc1nc(F)c(-c2ccc(C3CCOCC3)c([C@@H]3CCCN3)c2)cc1-c1cc2c(cc1F)C(=O)NCC2` [I-368, (S)-6-(2-amino-6-fluoro-5-(3-(pyrrolidin-2-yl)-4-(tetrahydro-2H-pyran-4-yl)phenyl)pyridin-3-yl)-7-fluoro-3,4-dihydroisoquinolin-1(2H)-one]: the results for the half-maximal inhibitory concentration (IC50) (on Lck (h); in experiment [1]) were 11 to 100 nM and 0.1 to 10 nM, respectively.

Consider `CN1CCN(c2ccc(-c3cnc(N)c(-c4ccc5c(c4)CCNC5=O)c3F)cc2)CC1` [I-1, 6-(2-amino-4-fluoro-5-(4-(4-methylpiperazin-1-yl)phenyl)pyridin-3-yl)-3,4-dihydroisoquinolin-1(2H)-one], for which the values for the IC50 (at Lck (h); in experiment [1]) were 101 to 1000 nM and 11 to 100 nM, respectively.

Take `Cc1nc2cc(-c3cc(-c4ccc(C5CCOCC5)c(CN(C)C)c4)c(F)nc3N)ccc2c(=O)[nH]1` [I-437, 7-(2-amino-5-(3-((dimethylamino)methyl)-4-(tetrahydro-2H-pyran-4-yl)phenyl)-6-fluoropyridin-3-yl)-2-methylquinazolin-4(3H)-one]: the concentration for half-maximal inhibition (IC50) (usually the concentration at which inhibition is half-maximal) on Lck (h) is greater than 1000 nM; in experiment [1] it was 11 to 100 nM.

With `CC(C)N1CCN(c2ccc(-c3cc(-c4ccc5c(c4)CC(CN(C)C)NC5=O)c(N)nc3F)cc2)CC1` (stereo not drawn) [I-310, 6-(2-amino-6-fluoro-5-(4-(4-isopropylpiperazin-1-yl)phenyl)pyridin-3-yl)-3-((dimethylamino)methyl)-3,4-dihydroisoquinolin-1(2H)-one], the half-maximal inhibitory concentration (IC50) on Lck (h) is greater than 1000 nM; in experiment [1], 11 to 100 nM.

As to `COCCN1CCc2cc(-c3cc(-c4cc5c(cc4F)C(=O)NCC5)c(N)nc3F)ccc2C1` [I-300, 6-(2-amino-6-fluoro-5-(2-(2-methoxyethyl)-1,2,3,4-tetrahydroisoquinolin-6-yl)pyridin-3-yl)-7-fluoro-3,4-dihydroisoquinolin-1(2H)-one], the figures for the IC50 (on Lck (h); in experiment [1]) were greater than 1000 nM and 0.1 to 10 nM, respectively.

Take `Nc1nc(F)c(-c2ccc(OC3CCOCC3)cc2)cc1-c1ccc2c(c1)CCNC2=O` [I-35, 6-(2-amino-6-fluoro-5-(4-((tetrahydro-2H-pyran-4-yl)oxy)phenyl)pyridin-3-yl)-3,4-dihydroisoquinolin-1(2H)-one]: the figures for the IC50 (on Lck (h); in experiment [1]) were greater than 1000 nM and 0.1 to 10 nM, respectively.

`Nc1nc(F)c(-c2ccc(N3CCN4CCOC[C@@H]4C3)cc2)cc1-c1ccc2c(c1)CCNC2=O` [I-39, (S)-6-(2-amino-6-fluoro-5-(4-(hexahydropyrazino[2,1-c][1,4]oxazin-8(1H)-yl)phenyl)pyridin-3-yl)-3,4-dihydroisoquinolin-1(2H)-one]: the IC50 on Lck (h) is greater than 1000 nM; in experiment [1], 0.1 to 10 nM.

Take `CN1CCN(c2ccc(-c3cc(-c4cc5c(cc4F)C(=O)NCC5)c(N)nc3F)cc2)CC1` [I-246, 6-(2-amino-6-fluoro-5-(4-(4-methylpiperazin-1-yl)phenyl)pyridin-3-yl)-7-fluoro-3,4-dihydroisoquinolin-1(2H)-one]: the half-inhibitory concentration (IC50) was greater than 1000 nM at Lck (h) and 0.1 to 10 nM in experiment [1].

On to `CCN1CCOCC1c1ccc(-c2cc(-c3ccc4c(c3)CCNC4=O)c(N)nc2F)cc1` (stereo not drawn) [I-131, 6-(2-amino-5-(4-(4-ethylmorpholin-3-yl)phenyl)-6-fluoropyridin-3-yl)-3,4-dihydroisoquinolin-1(2H)-one], for which the IC50 on Lck (h) is greater than 1000 nM; in experiment [1], 0.1 to 10 nM.

On to `CC(C)(O)CN1C[C@@H]2C[C@]2(c2ccc(-c3cc(-c4ccc5c(c4)CCNC5=O)c(N)nc3F)cc2)C1` [I-126, 6-(2-amino-6-fluoro-5-(4-((1S,5R)-3-(2-hydroxy-2-methylpropyl)-3-azabicyclo[3.1.0]hexan-1-yl)phenyl)pyridin-3-yl)-3,4-dihydroisoquinolin-1(2H)-one], for which the IC50 at Lck (h) was greater than 1000 nM; in experiment [1], 0.1 to 10 nM.

Take `CN(C)Cc1cc(-c2cc(-c3cc4c(cc3F)C(=O)NCC4)c(N)nc2F)ccc1C1CCOCC1` [I-429, 6-(2-amino-5-(3-((dimethylamino)methyl)-4-(tetrahydro-2H-pyran-4-yl)phenyl)-6-fluoropyridin-3-yl)-7-fluoro-3,4-dihydroisoquinolin-1(2H)-one]: the IC50 on Lck (h) is greater than 1000 nM; in experiment [1], 0.1 to 10 nM.

As to `COCCN1CCC(Oc2ccc(-c3cc(-c4ccc5c(c4)CCNC5=O)c(N)nc3F)cc2)CC1` [I-189, 6-(2-amino-6-fluoro-5-(4-((1-(2-methoxyethyl)piperidin-4-yl)oxy)phenyl)pyridin-3-yl)-3,4-dihydroisoquinolin-1(2H)-one], the IC50 on Lck (h) is greater than 1000 nM; in experiment [1], 0.1 to 10 nM.

Consider `CN1CC=C(c2ccc(-c3cc(-c4cc5c(cc4F)C(=O)NCC5)c(N)nc3Cl)cc2)CC1` [I-232, 6-(2-amino-6-chloro-5-(4-(1-methyl-1,2,3,6-tetrahydropyridin-4-yl)phenyl)pyridin-3-yl)-7-fluoro-3,4-dihydroisoquinolin-1(2H)-one], for which the values for the half-maximal inhibitory concentration (IC50) (on Lck (h); in experiment [1]) were greater than 1000 nM and 11 to 100 nM, respectively.

`Nc1nc(F)c(-c2ccc(N3CCN(CC4CC4)CC3)cc2)cc1-c1cc(F)c2c(c1)CCNC2=O` [I-307, 6-(2-amino-5-(4-(4-(cyclopropylmethyl)piperazin-1-yl)phenyl)-6-fluoropyridin-3-yl)-8-fluoro-3,4-dihydroisoquinolin-1(2H)-one]: the half-maximal inhibitory concentration (IC50) is greater than 1000 nM on Lck (h) and 0.1 to 10 nM in experiment [1].

As for `COCCN1CCOCC1c1ccc(-c2cc(-c3ccc4c(c3)CCNC4=O)c(N)nc2F)cc1` (stereo not drawn) [I-134, 6-(2-amino-6-fluoro-5-(4-(4-(2-methoxyethyl)morpholin-3-yl)phenyl)pyridin-3-yl)-3,4-dihydroisoquinolin-1(2H)-one], the IC50 on Lck (h) is greater than 1000 nM; in experiment [1], 0.1 to 10 nM.

On to `Nc1nc(F)c(-c2ccc(OC3CN(C(=O)CC4CC4)C3)cc2)cc1-c1ccc2c(c1)CCNC2=O` [I-317, 6-(2-amino-5-(4-((1-(2-cyclopropylacetyl)azetidin-3-yl)oxy)phenyl)-6-fluoropyridin-3-yl)-3,4-dihydroisoquinolin-1(2H)-one], for which the IC50 at Lck (h) was greater than 1000 nM; in experiment [1], 0.1 to 10 nM.

`CN(C)Cc1nc(-c2cc(-c3ccc4c(c3)CCNC4=O)c(N)nc2F)ccc1N1CCOCC1` [I-551, 6-(6′-amino-6-((dimethylamino)methyl)-2′-fluoro-5-morpholino-[2,3′-bipyridin]-5′-yl)-3,4-dihydroisoquinolin-1(2H)-one]: the concentration for half-maximal inhibition (IC50) on Lck (h) is greater than 1000 nM; in experiment [1], 0.1 to 10 nM.

On to `CC(C)(C)OC(=O)N1CCC(S(=O)(=O)c2ccc(-c3cc(-c4ccc5c(c4)CCNC5=O)c(N)nc3F)cc2)CC1` [I-83, tert-butyl 4-((4-(6-amino-2-fluoro-5-(1-oxo-1,2,3,4-tetrahydroisoquinolin-6-yl)pyridin-3-yl)phenyl)sulfonyl)piperidine-1-carboxylate], for which the half-inhibitory concentration (IC50) is greater than 1000 nM at Lck (h) and 11 to 100 nM in experiment [1].

For the compound `COCCN1CCC(Oc2ccc(-c3cc(-c4cc5c(cc4F)C(=O)NCC5)c(N)nc3F)cc2C#N)CC1` [I-303, 5-(6-amino-2-fluoro-5-(7-fluoro-1-oxo-1,2,3,4-tetrahydroisoquinolin-6-yl)pyridin-3-yl)-2-((1-(2-methoxyethyl)piperidin-4-yl)oxy)benzonitrile], the figures for the IC50 (on Lck (h); in experiment [1]) were greater than 1000 nM and 11 to 100 nM, respectively.

For the compound `CC(C)[C@H]1CN(c2ccc(-c3cc(-c4ccc5c(c4)CCNC5=O)c(N)nc3F)c(F)c2)CCO1` [I-12, (S)-6-(2-amino-6-fluoro-5-(2-fluoro-4-(2-isopropylmorpholino)phenyl)pyridin-3-yl)-3,4-dihydroisoquinolin-1(2H)-one], the half-inhibitory concentration (IC50) at Lck (h) was greater than 1000 nM; in experiment [1] it was 11 to 100 nM.

`Nc1nc(F)c(-c2ccc(N3C[C@@H]4CCO[C@@H]4C3)cc2)cc1-c1ccc2c(c1)CCNC2=O` [I-92, 6-(2-amino-6-fluoro-5-(4-((3aS,6aS)-hexahydro-5H-furo[2,3-c]pyrrol-5-yl)phenyl)pyridin-3-yl)-3,4-dihydroisoquinolin-1(2H)-one]: the values for the half-maximal inhibitory concentration (IC50) (on Lck (h); in experiment [1]) were greater than 1000 nM and 0.1 to 10 nM, respectively.

For `Nc1nc(F)c(-c2ccc(N3CCN(CC4CC4)CC3)cc2)cc1-c1cc2c(cc1F)C(=O)NCC2` [I-213, 6-(2-amino-5-(4-(4-(cyclopropylmethyl)piperazin-1-yl)phenyl)-6-fluoropyridin-3-yl)-7-fluoro-3,4-dihydroisoquinolin-1(2H)-one], the IC50 at Lck (h) is greater than 1000 nM; in experiment [1], 0.1 to 10 nM.

Consider `Nc1nc(F)c(-c2ccc(N3CCOCC3)cc2)cc1-c1cc2c(cc1F)C(=O)NCC2` [I-19, 6-(2-amino-6-fluoro-5-(4-morpholinophenyl)pyridin-3-yl)-7-fluoro-3,4-dihydroisoquinolin-1(2H)-one], for which the half-inhibitory concentration (IC50) on Lck (h) is greater than 1000 nM; in experiment [1], 0.1 to 10 nM.

On to `Nc1nc(F)c(-c2ccc(N3CCNCC3)c(C(F)(F)F)c2)cc1-c1cc2c(cc1F)C(=O)NCC2` [I-219, 6-(2-amino-6-fluoro-5-(4-(piperazin-1-yl)-3-(trifluoromethyl)phenyl)pyridin-3-yl)-7-fluoro-3,4-dihydroisoquinolin-1(2H)-one], for which the half-inhibitory concentration (IC50) at Lck (h) is greater than 1000 nM; in experiment [1], 0.1 to 10 nM.
